Results taken from patent publication US11155556B2, “Pyrimido-diazepinone kinase scaffold compounds and methods for treating PI3K-mediated disorders” (DANA-FARBER CANCER INSTITUTE, INC., priority 2016, dated 2021).

Tests used:
[1] = test system: PI3K-δ signaling (HMEC expressing CA-p110δ); assay: PI3K cellular signaling assay in isogenic HMEC lines (Western blot); assay type: cell-based; details: 10 nM concentration, FIG. 4C
Description: HMEC derivative cell lines were serum-starved for 3 hours, then treated with the indicated compounds at 0.01 μM, 0.1 μM, or 1 μM for 1 h. Cell lysates were prepared and subjected to Western blot assays with the indicated antibodies. Du, Duvelisib; Id, Idelalisib.
PI3K cellular signaling assays were performed as previously described (Reference 18).
HMEC derivative cells were cultured as described previously (Ni J, Liu Q, Xie S, et al. Functional characterization of an isoform-selective inhibitor of PI3K-p110beta as a potential anticancer agent. Cancer discovery. 2012; 2(5):425-433).
Western blot analysis was performed as previously described (Reference 1). Anti-phospho-AKT (Thr308) (#4056), anti-phospho-AKT (Ser473) (#4060), anti-AKT (#9272), anti-phospho-S6 ribosomal protein (Ser235/236) (#2211), anti-S6 ribosomal protein (#2217) antibodies were all from Cell Signaling Technology (Hanover, Mass.), and anti-α-tubulin antibody was from Sigma (Rockford, Ill.).

Loucy cells = assay: CellTiter-Glo cell viability assay, Loucy; assay type: cell-based; details: 72 h, 3 days, average of three replicates
Description: (§1) Cell viability assays were performed using CellTiter-Glo (Promega). Cells were grown in RPMI-10% FBS medium. 600 cells per well were seeded in a 96-well plate and then treated with eight doses of each compound in 3-fold dilution steps ranging from 10 um to 0.0046 uM for 3 days. Wells were imaged using a luminometer. IC50 were determined using Prism software. Data was normalized to a dimethyl sulfoxide (DMSO)-only control.

[2] = test system: patient-derived primary CLL cells; assay: CellTiter-Glo cell viability assay, patient-derived primary CLL cells; assay type: cell-based; details: Homo sapiens
Description: The CellTiter-Glo assay (Promega) was used to determine the viability of cells from chronic lymphocytic leukemia (CLL) patients at baseline (primary human patient derived CLL cells), upon IgM stimulation, and after drug treatment. IgM stimulation was conducted using AffiniPure F(ab′)2 Fragment Goat Anti-Human IgM (Jackson ImmunoResearch). Cell viability results after drug treatment are presented in FIG. 7A (IgM-stimulated cells) and FIG. 7B (PBS control).

PI3K-δ = PI3K-δ (Homo sapiens (Human), UniProt O00329); assay: ADAPTA kinase assay, PI3K-δ; assay type: biochemical; details: ADAPTA assay format; for IC50: ATP at Km
Chain of PI3K-δ (O00329 whole entry): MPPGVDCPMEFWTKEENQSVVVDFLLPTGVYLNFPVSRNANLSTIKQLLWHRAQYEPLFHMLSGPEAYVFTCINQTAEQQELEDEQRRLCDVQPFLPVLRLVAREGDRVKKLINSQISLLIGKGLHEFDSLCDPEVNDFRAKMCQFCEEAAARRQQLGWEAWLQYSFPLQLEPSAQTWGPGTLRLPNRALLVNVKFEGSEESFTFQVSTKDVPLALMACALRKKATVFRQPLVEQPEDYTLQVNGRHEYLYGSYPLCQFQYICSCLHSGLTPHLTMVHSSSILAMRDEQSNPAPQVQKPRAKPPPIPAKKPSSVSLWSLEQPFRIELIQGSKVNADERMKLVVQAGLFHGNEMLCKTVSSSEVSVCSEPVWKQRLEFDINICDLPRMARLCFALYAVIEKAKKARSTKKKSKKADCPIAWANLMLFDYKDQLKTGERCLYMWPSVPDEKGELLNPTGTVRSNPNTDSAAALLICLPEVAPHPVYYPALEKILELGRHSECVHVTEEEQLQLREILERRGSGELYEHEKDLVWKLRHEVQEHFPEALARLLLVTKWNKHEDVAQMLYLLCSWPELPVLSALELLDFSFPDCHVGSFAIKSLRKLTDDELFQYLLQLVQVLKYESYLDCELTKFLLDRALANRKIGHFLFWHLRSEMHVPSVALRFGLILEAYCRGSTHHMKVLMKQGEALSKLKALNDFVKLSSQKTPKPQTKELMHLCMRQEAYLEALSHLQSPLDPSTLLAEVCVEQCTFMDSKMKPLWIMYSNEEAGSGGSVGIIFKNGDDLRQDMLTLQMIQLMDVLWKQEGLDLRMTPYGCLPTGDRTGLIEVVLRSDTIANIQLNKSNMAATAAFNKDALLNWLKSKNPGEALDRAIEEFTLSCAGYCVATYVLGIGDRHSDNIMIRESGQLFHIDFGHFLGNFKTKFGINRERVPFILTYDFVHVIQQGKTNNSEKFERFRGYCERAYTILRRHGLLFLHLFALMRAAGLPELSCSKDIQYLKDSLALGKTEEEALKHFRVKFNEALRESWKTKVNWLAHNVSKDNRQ
Chain of PI3K-δ (P27986 whole entry partner): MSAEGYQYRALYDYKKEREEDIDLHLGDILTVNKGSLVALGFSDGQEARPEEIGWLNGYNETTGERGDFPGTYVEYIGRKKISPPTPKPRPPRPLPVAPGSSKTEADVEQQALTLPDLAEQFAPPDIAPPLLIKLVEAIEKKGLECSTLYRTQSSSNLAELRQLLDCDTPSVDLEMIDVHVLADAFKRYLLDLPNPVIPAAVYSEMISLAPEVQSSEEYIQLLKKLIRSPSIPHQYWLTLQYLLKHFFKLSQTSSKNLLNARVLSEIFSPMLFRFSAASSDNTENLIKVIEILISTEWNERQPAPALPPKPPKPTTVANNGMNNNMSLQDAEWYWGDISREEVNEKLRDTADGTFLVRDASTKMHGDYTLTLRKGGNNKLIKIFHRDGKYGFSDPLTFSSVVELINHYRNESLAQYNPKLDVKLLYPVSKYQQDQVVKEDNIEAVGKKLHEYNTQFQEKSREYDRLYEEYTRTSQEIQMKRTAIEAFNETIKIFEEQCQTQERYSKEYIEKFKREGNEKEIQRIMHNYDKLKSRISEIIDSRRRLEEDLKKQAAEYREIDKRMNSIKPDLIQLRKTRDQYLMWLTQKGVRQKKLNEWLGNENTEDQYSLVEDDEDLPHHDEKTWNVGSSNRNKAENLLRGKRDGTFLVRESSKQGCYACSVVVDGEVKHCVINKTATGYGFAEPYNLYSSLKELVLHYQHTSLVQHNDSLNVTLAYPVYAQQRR
Description: (§2) The enzymatic activities against PI3K-α, PI3K-β, PI3K-γ and PI3K-δ were tested in ADAPTA assays. Activity against […] were tested in Z′-Lyte assays. All assays were performed with ATP concentrations of Km for each kinase. BRD4_1 binding was tested using an AlphaScreen assay. All protocols are available from Life Technologies.
as §2, with “against PI3K-α, PI3K-γ and” for “against PI3K-α, PI3K-β, PI3K-γ and”, “assay. All the protocols are” for “assay. All protocols are”

Molm14 cells = assay: CellTiter-Glo cell viability assay, Molm14; assay type: cell-based; details: Homo sapiens, MOLM-14, 72 h, 3 days, average of three replicates
Description: as §1

MV4:11 cells = assay: CellTiter-Glo cell viability assay, MV4:11; assay type: cell-based; details: Homo sapiens, MV4-11, 72 h, 3 days, average of three replicates
Description: as §1

MOLT4 cells = assay: CellTiter-Glo proliferation / cell viability assay, MOLT4; assay type: cell-based; details: Homo sapiens, MOLT-4, 72 h, 3 days, average of three replicates
Description: (§3) Proliferation assays were conducted in Jurkat or MOLT4 cell lines using Cell Titer Glo as described in product manual.
as §1

Jurkat cells = assay: CellTiter-Glo proliferation / cell viability assay, Jurkat; assay type: cell-based; details: Homo sapiens, 72 h, 3 days, average of three replicates
Description: as §3, §1

Aurora B = Aurora B (Homo sapiens (Human), UniProt Q96GD4); assay: Z'-LYTE kinase assay, Aurora B; assay type: biochemical; details: Z'LYTE assay format, ATP at Km
Chain of Aurora B (Q96GD4 whole entry): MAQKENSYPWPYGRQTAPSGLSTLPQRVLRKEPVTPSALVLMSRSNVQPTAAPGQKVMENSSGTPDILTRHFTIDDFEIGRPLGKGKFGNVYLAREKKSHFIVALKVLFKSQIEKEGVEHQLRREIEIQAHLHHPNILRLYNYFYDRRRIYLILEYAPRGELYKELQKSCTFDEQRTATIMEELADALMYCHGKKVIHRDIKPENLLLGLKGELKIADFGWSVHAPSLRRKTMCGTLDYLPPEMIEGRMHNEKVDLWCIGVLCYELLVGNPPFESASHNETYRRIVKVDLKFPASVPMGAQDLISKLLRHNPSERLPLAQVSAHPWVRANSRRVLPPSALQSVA
Description: as §2
as §2, with “against PI3K-α, PI3K-γ and” for “against PI3K-α, PI3K-β, PI3K-γ and”, “assay. All the protocols are” for “assay. All protocols are”

Aurora A = Aurora A (Homo sapiens (Human), UniProt O14965); assay: Z'-LYTE kinase assay, Aurora A; assay type: biochemical; details: Z'LYTE assay format, ATP at Km
Chain of Aurora A (O14965 whole entry): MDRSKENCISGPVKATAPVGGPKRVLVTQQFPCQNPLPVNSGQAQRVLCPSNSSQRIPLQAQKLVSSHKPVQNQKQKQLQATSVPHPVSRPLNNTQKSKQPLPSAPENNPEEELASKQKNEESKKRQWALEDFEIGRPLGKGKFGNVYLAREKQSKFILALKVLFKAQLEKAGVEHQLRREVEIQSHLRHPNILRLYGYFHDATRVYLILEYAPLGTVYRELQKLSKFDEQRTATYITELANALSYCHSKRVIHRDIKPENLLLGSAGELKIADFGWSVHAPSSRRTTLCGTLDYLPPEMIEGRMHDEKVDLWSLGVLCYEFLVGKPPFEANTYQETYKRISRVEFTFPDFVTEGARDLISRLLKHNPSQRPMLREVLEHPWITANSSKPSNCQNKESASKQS
Description: The enzymatic activities against PI3K-α, PI3K-β, PI3K-γ and PI3K-δ were tested in ADAPTA assays. […] All assays were performed with ATP concentrations of Km for each kinase. BRD4_1 binding was tested using an AlphaScreen assay. All protocols are available from Life Technologies.
The enzymatic activities against PI3K-α, PI3K-γ and PI3K-δ were tested in ADAPTA assays. […] All assays were performed with ATP concentrations of Km for each kinase. BRD4_1 binding was tested using an AlphaScreen assay. All the protocols are available from Life Technologies.

PI3K-γ = PI3K-γ (Homo sapiens (Human), UniProt P48736); assay: ADAPTA kinase assay, PI3K-γ; assay type: biochemical; details: ADAPTA assay format; for IC50: ATP at Km
Chain of PI3K-γ (P48736 whole entry): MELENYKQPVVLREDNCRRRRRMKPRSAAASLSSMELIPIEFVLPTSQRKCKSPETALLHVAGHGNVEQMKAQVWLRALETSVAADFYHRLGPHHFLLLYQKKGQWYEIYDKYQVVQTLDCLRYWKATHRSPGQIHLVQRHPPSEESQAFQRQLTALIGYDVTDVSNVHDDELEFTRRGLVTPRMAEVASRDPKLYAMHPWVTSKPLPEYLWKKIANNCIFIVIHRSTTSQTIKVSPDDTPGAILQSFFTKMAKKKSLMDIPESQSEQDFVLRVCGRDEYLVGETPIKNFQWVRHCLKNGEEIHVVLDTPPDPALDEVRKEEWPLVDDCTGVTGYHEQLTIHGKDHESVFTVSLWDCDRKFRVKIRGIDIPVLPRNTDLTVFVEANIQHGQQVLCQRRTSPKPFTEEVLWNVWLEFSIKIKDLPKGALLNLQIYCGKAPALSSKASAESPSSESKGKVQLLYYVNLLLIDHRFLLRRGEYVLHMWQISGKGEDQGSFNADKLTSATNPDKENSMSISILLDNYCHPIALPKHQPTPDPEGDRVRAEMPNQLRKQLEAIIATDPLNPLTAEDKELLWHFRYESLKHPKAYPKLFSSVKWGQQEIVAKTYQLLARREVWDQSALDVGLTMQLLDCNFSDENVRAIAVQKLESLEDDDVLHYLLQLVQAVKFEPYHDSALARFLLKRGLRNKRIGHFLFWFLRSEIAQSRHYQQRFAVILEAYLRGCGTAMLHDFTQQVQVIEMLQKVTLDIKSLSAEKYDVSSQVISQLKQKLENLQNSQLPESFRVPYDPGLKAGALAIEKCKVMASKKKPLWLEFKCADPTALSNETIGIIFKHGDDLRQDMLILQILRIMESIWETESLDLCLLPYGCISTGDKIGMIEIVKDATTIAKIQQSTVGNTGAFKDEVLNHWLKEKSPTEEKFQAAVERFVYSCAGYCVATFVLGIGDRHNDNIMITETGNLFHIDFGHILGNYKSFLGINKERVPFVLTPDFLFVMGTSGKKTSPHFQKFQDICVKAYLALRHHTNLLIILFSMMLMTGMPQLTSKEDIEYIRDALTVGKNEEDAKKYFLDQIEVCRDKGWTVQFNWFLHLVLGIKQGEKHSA
Description: as §2
as §2, with “against PI3K-α, PI3K-γ and” for “against PI3K-α, PI3K-β, PI3K-γ and”, “assay. All the protocols are” for “assay. All protocols are”

PI3K-α = PI3K-α (Homo sapiens (Human), UniProt P42336); assay: ADAPTA kinase assay, PI3K-α; assay type: biochemical; details: ADAPTA assay format, ATP at Km
Description: as §2
as §2, with “against PI3K-α, PI3K-γ and” for “against PI3K-α, PI3K-β, PI3K-γ and”, “assay. All the protocols are” for “assay. All protocols are”

PI3K-β = PI3K-β (Homo sapiens (Human), UniProt P42338); assay: ADAPTA kinase assay, PI3K-β; assay type: biochemical; details: ADAPTA assay format, ATP at Km
Chain of PI3K-β (P42338 whole entry): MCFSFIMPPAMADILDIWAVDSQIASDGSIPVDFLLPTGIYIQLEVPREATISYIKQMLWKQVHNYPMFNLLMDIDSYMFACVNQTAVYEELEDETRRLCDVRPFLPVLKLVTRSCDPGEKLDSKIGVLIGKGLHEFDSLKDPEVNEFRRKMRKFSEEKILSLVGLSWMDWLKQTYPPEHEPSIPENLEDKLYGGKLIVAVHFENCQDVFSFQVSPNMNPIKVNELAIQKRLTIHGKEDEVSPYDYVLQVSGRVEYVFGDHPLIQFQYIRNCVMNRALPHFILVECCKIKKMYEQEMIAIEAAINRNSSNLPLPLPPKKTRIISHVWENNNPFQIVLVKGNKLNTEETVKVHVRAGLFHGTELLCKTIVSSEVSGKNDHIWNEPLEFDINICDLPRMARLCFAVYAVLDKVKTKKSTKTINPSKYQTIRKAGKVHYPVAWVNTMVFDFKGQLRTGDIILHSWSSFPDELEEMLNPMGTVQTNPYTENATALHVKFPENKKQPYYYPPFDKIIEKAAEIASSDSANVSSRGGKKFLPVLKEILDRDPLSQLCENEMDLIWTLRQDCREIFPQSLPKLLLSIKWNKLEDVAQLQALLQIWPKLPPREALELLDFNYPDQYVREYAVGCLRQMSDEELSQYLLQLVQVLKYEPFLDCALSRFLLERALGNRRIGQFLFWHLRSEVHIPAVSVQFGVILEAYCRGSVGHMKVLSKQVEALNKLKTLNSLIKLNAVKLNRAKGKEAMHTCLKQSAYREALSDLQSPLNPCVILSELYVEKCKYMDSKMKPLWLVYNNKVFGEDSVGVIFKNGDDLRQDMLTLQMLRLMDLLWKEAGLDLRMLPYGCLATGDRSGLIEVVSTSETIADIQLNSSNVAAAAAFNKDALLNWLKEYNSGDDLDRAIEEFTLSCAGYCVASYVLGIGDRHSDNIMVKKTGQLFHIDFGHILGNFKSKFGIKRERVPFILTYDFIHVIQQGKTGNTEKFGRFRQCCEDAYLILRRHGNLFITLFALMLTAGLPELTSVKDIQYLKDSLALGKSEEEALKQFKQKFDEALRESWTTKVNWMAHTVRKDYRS
Chain of PI3K-β (P27986 whole entry partner): as the sequence (P27986 whole entry partner) above
Description: as §2
as §2, with “against PI3K-α, PI3K-γ and” for “against PI3K-α, PI3K-β, PI3K-γ and”, “assay. All the protocols are” for “assay. All protocols are”

SMILES | IC50 (Aurora B) | IC50 (PI3K-δ) | IC50 (Aurora A) | IC50 (PI3K-γ) | further results
C[C@H](Nc1ncnc2nc[nH]c12)c1cc2cccc(Cl)c2c(=O)n1-c1ccccc1 [Duvelisib, reference compound] | – | – | – | – | inhibition of PI3K-δ signaling (AKT and S6RP phosphorylation) [1]: the most potent PI3K-δ inhibitor; IC50 (Loucy cells): 980 nM; IC50 [2]: > 10 µM; potency in the PI3K-δ assay compared with clinical compounds (PI3K-δ; FIG. 4B): the most potent; IC50 (Molm14 cells): 1200 nM; IC50 (MV4:11 cells): 4.4 µM; IC50 (MOLT4 cells): 2300 nM; IC50 (Jurkat cells): 1900 nM
CN1C(=O)c2ccccc2N(C)c2nc(Nc3ccc(S(N)(=O)=O)cc3)ncc21 [Compound 16] | 13.3 nM | 14.5 nM | 4.8 nM | 49 nM | –
C=CC(=O)NC1CCN(S(=O)(=O)c2cccc(Nc3ncc4c(n3)N(C)c3ccc(C)cc3C(=O)N4C)c2)CC1 [Compound 3, N-(1-((3-((5,8,11-trimethyl-6-oxo-6,11-dihydro-5H-benzo[e]pyrimido[5,4-b][1,4]diazepin-2-yl)amino)phenyl)sulfonyl)piperidin-4-yl)acrylamide] | 631 nM | 122 nM | 355 nM | 20 nM | –
C=CC(=O)Nc1cccc(NS(=O)(=O)c2ccc(Nc3ncc4c(n3)N(C)c3ccc(C)cc3C(=O)N4C)cc2)c1 [Compound 8, N-(3-((4-((5,8,11-trimethyl-6-oxo-6,11-dihydro-5H-benzo[e]pyrimido[5,4-b][1,4]diazepin-2-yl)amino)phenyl)sulfonamido)phenyl)acrylamide] | – | 343 nM | – | 438 nM | –
Cc1ccc2c(c1)C(=O)N(C)c1cnc(Nc3cccc(S(N)(=O)=O)c3)nc1N2C [Compound 15, 3-((5,8,11-trimethyl-6-oxo-6,11-dihydro-5H-benzo[e]pyrimido[5,4-b][1,4]diazepin-2-yl)amino)benzenesulfonamide] | – | 108 nM | – | 75.9 nM | –
Cc1ccc2c(c1)C(=O)N(C)c1cnc(Nc3ccc(S(N)(=O)=O)cc3)nc1N2C [Compound 14] | 4 nM | 20 nM | 16 nM | 30 nM | –
C=CC(=O)Nc1cccc(NS(=O)(=O)c2cccc(Nc3ncc4c(n3)N(C)c3ccc(C)cc3C(=O)N4C)c2)c1 [Compound 7, N-(3-((3-((5,8,11-trimethyl-6-oxo-6,11-dihydro-5H-benzo[e]pyrimido[5,4-b][1,4]diazepin-2-yl)amino)phenyl)sulfonamido)phenyl)acrylamide] | 130 nM | 328 nM | 188 nM | 39 nM | –
C=CC(=O)N1CCN(S(=O)(=O)c2ccc(Nc3ncc4c(n3)N(C)c3ccc(C)cc3C(=O)N4C)cc2)CC1 [Compound 2, 2-((4-((4-acryloylpiperazin-1-yl)sulfonyl)phenyl)amino)-5,8,11-trimethyl-5,11-dihydro-6H-benzo[e]pyrimido[5,4-b][1,4]diazepin-6-one] | 16 nM | 112 nM | 23 nM | 231 nM | –
Cc1cc(S(N)(=O)=O)ccc1Nc1ncc2c(n1)N(C)c1ccccc1C(=O)N2C [Compound 18] | 9360 nM | 2380 nM | 4850 nM | 822 nM | –
CC[C@H](Nc1ncnc2[nH]cnc12)c1nc2cccc(F)c2c(=O)n1-c1ccccc1 [Idelalisib, reference compound] | – | – | – | – | inhibition of PI3K-δ signaling (AKT and S6RP phosphorylation) [1]: comparable inhibition of, and selectivity for, PI3K-δ signaling; IC50 [2]: > 10 µM; potency in the PI3K-γ assay compared with clinical compounds (PI3K-γ; FIG. 4B): much less potent
Cc1ccc2c(c1)C(=O)N(C)c1cnc(Nc3ccc(S(=O)(=O)N4CCN(C)CC4)cc3)nc1N2C [Compound 11, 5,8,11-trimethyl-2-((4-((4-methylpiperazin-1-yl)sulfonyl)phenyl)amino)-5,11-dihydro-6H-benzo[e]pyrimido[5,4-b][1,4]diazepin-6-one] | – | 3250 nM | – | 2610 nM | –
CN1C(=O)c2ccccc2N(C)c2nc(Nc3cccc(S(N)(=O)=O)c3)ncc21 [Compound 17] | 4 nM | 4 nM | 2 nM | 4 nM | –
C=CC(=O)Nc1ccc(NS(=O)(=O)c2cccc(Nc3ncc4c(n3)N(C)c3ccc(C)cc3C(=O)N4C)c2)cc1 [Compound 5, N-(4-((3-((5,8,11-trimethyl-6-oxo-6,11-dihydro-5H-benzo[e]pyrimido[5,4-b][1,4]diazepin-2-yl)amino)phenyl)sulfonamido)phenyl)acrylamide] | 290 nM | 15 nM | 272 nM | 29.3 nM | IC50 (PI3K-α): 728 nM; IC50 (PI3K-β): > 10 µM
C=CC(=O)Nc1ccc(NS(=O)(=O)c2ccc(Nc3ncc4c(n3)N(C)c3ccc(C)cc3C(=O)N4C)cc2)cc1 [Compound 6, N-(4-((4-((5,8,11-trimethyl-6-oxo-6,11-dihydro-5H-benzo[e]pyrimido[5,4-b][1,4]diazepin-2-yl)amino)phenyl)sulfonamido)phenyl)acrylamide] | 80 nM | 306 nM | 49 nM | 96 nM | –
Cc1ccc2c(c1)C(=O)N(C)c1cnc(Nc3cccc(S(=O)(=O)N4CCN(C)CC4)c3)nc1N2C [Compound 10] | – | 558 nM | – | 50.7 nM | –
C=CC(=O)NC1CCN(S(=O)(=O)c2ccc(Nc3ncc4c(n3)N(C)c3ccc(C)cc3C(=O)N4C)cc2)CC1 [Compound 4, N-(1-((4-((5,8,11-trimethyl-6-oxo-6,11-dihydro-5H-benzo[e]pyrimido[5,4-b][1,4]diazepin-2-yl)amino)phenyl)sulfonyl)piperidin-4-yl)acrylamide] | – | 48.6 nM | – | 123 nM | –
Cc1ccc2c(c1)C(=O)N(C)c1cnc(Nc3ccc(S(=O)(=O)N4CCC(O)CC4)cc3)nc1N2C [Compound 13, 2-((4-((4-hydroxypiperidin-1-yl)sulfonyl)phenyl)amino)-5,8,11-trimethyl-5,11-dihydro-6H-benzo[e]pyrimido[5,4-b][1,4]diazepin-6-one] | – | 58 nM | – | 41 nM | –
